From patent publication US20240270679A1, “LIPIDS FOR USE IN LIPID NANOPARTICLE FORMULATIONS” (Acuitas Therapeutics, Inc., priority 2022, published 2024)
Marks after values point to notes of the source that are not given here.

Legend:
[1] = Determination of pKa of formulated lipids (TNS fluorescence assay in lipid nanoparticles); assay type: physicochemical; settings: lipid nanoparticles (compound/DSPC/cholesterol/PEG-lipid), lipid formulated in LNP (cationic lipid/DSPC/cholesterol/PEG-lipid), pH of half-maximal fluorescence
Experimental: As described elsewhere, the pKa of formulated lipids is correlated with the effectiveness of LNPs for delivery of nucleic acids (see Jayaraman et al, Angewandte Chemie, International Edition (2012), 51(34), 8529-8533; Semple et al, Nature Biotechnology 28, 172-176 (2010)). In some embodiments, the preferred range of pKa is ˜5 to ˜7. The pKa of each lipid is determined in lipid nanoparticles using an assay based on fluorescence of 2-(p-toluidino)-6-napthalene sulfonic acid (TNS). Lipid nanoparticles comprising compound of structure (I)/DSPC/cholesterol/PEG-lipid (50/10/38.5/1.5 or 47.5:10:40.7:1.8 mol %) in PBS at a concentration of 0.4 mM total lipid are prepared using the in-line process as described in Example 1. TNS is prepared as a 100 μM stock solution in distilled water. Vesicles are diluted to 24 μM lipid in 2 mL of buffered solutions containing 10 mM HEPES, 10 mM MES, 10 mM ammonium acetate, and 130 mM NaCl, where the pH ranged from 2.5 to 11. An aliquot of the TNS solution is added to give a final concentration of 1 μM and following vortex mixing fluorescence intensity is measured at room temperature in a SLM Aminco Series 2 Luminescence Spectrophotometer using excitation and emission wavelengths of 321 nm and 445 nm. A sigmoidal best fit analysis is applied to the fluorescence data and the pKa is measured as the pH giving rise to half-maximal fluorescence intensity.

[2] = tested on: human IgG in mouse serum; experiment: Immunoglobulin G (IgG) mRNA in vivo evaluation using lipid nanoparticle compositions (human IgG ELISA); parameters: species or system mice; settings: tail vein injection, μg IgG/mL serum 24 hours after administration; for Serum IgG @ 0.3 mg/kg: 0.3 mg mRNA/kg; for Serum IgG @ 1.0 mg/kg: 1.0 mg mRNA/kg
Experimental: (§1) A lipid of structure (I), DSPC, cholesterol and PEG-lipid are solubilized in ethanol at a molar ratio of 50:10:38.5:1.5 or 47.5:10:40.7:1.8. Lipid nanoparticles (LNP) are prepared at a total lipid to mRNA weight ratio of approximately 10:1 to 40:1. Briefly, the mRNA is diluted to 0.2 mg/mL in 10 to 50 mM citrate buffer, pH 4 or 10 to 25 mM acetate buffer, pH 4. Syringe pumps are used to mix the ethanolic lipid solution with the mRNA aqueous solution at a ratio of about 1:5 to 1:3 (vol/vol) with total flow rates above 15 mL/min. The ethanol is then removed, and the external buffer replaced with PBS by dialysis. Finally, the lipid nanoparticles are filtered through a 0.2 µm pore sterile filter.
Studies are performed in 6-8-week-old CD-1/ICR mice (Envigo) according to guidelines established by an institutional animal care committee (ACC) and the Canadian Council on Animal Care (CCAC). Varying doses of mRNA-lipid nanoparticle are systemically administered by tail vein injection and animals euthanized at a specific time point (e.g., 24 hours) post-administration. The whole blood is collected, and the serum subsequentially separated by centrifuging the tubes of the whole blood at 2000×g for 10 minutes at 4° C. and stored at −80° C. until use for analysis.
For immunoglobulin G (IgG) ELISA (Life Diagnostics Human IgG ELISA kit), the serum samples are diluted at 100 to 15000 folds with 1× diluent solution. 100 μL of diluted serum is dispensed into anti-human IgG coated 96-well plate in duplicate alongside human IgG standards and incubated in a plate shaker at 150 rpm at 25° C. for 45 minutes. The wells are washed 5 times with 1× wash solution using a plate washer (400 μL/well). 100 μL of HRP conjugate is added into each well and incubated in a plate shaker at the same condition above. The wells are washed 5 times again with 1× wash solution using a plate washer (400 μL/well). 100 μL of TMB reagent is added into each well and incubated in a plate shaker at the same condition above. The reaction is stopped by adding 100 μL of Stop solution to each well. The absorbance is read at 450 nm (A450) with a microplate reader. The amount of human IgG in mouse serum is determined by plotting A450 values for the assay standard against human IgG concentration.
(§2) Representative compounds of the disclosure shown in Table 2 were formulated using the following molar ratio: 50% cationic lipid/10% distearoylphosphatidylcholine (DSPC)/38.5% Cholesterol/1.5% PEG lipid 2-[2-(ω-methoxy(polyethyleneglycol2000)ethoxy]-N,N-ditetradecylacetamide) or 47.5% cationic lipid/10% DSPC/40.7% Cholesterol/1.8% PEG lipid. Activity was determined by measuring luciferase expression in the liver 4 hours following administration via tail vein injection as described in Example 1 or by measuring the amount of human IgG in mouse serum as described in Example 2. The activity was compared at a dose of 1.0 or 0.5 or 0.3 mg mRNA/kg and expressed as ng luciferase/g liver measured 4 hours after administration, as described in Example 1 or as μg IgG/mL serum measured 24 hours after administration, as described in Example 2. Compound numbers in Table 2 refer to the compound numbers of Table 1.

[3] = tested on: luciferase expression in the liver; experiment: Luciferase mRNA in vivo evaluation using lipid nanoparticle compositions (liver luciferase expression); parameters: species or system mice; settings: tail vein injection, ng luciferase/g liver 4 hours after administration; for Liver Luc @ 0.3 mg/kg: 0.3 mg mRNA/kg; for Liver Luc @ 1.0 mg/kg: 1.0 mg mRNA/kg
Experimental: as §1
Studies are performed in 6-8-week-old female C57BL/6 mice (Charles River) or 8-10-week-old CD-1 (Harlan) mice (Charles River) according to guidelines established by an institutional animal care committee (ACC) and the Canadian Council on Animal Care (CCAC). Varying doses of mRNA-lipid nanoparticle are systemically administered by tail vein injection and animals euthanized at a specific time point (e.g., 4 hours) post-administration. Liver and spleen are collected in pre-weighed tubes, weights determined, immediately snap frozen in liquid nitrogen, and stored at −80° C. until processing for analysis.
For liver, approximately 50 mg is dissected for analyses in a 2 mL FastPrep tubes (MP Biomedicals, Solon OH). ¼″ ceramic sphere (MP Biomedicals) is added to each tube and 500 μL of Glo Lysis Buffer—GLB (Promega, Madison WI) equilibrated to room temperature is added to liver tissue. Liver tissues are homogenized with the FastPrep24 instrument (MP Biomedicals) at 2×6.0 m/s for 15 seconds. Homogenate is incubated at room temperature for 5 minutes prior to a 1:4 dilution in GLB and assessed using SteadyGlo Luciferase assay system (Promega). Specifically, 50 μL of diluted tissue homogenate is reacted with 50 μL of SteadyGlo substrate, shaken for 10 seconds followed by 5-minute incubation and then quantitated using a CentroXS^3 LB 960 luminometer (Berthold Technologies, Germany). The amount of protein assayed is determined by using the BCA protein assay kit (Pierce, Rockford, IL). Relative luminescence units (RLU) are then normalized to total μg protein assayed. To convert RLU to ng luciferase a standard curve is generated with QuantiLum Recombinant Luciferase (Promega).
The FLuc mRNA (L-6107) from Trilink Biotechnologies will express a luciferase protein, originally isolated from the firefly, photinus pyralis. FLuc is commonly used in mammalian cell culture to measure both gene expression and cell viability. It emits bioluminescence in the presence of the substrate, luciferin. This capped and polyadenylated mRNA is fully substituted with 5-methylcytidine and pseudouridine.
as §2

## CCCCCCCCC(CCCCCC)COC(=O)CCCCCN(CCCCCC(=O)OCC(CCCCCC)CCCCCCCC)CCCN(C)CCCCC(=O)N(CCCCCC)CCCCCC (centres unmarked) [Compound I-49, Bis(2-hexyldecyl) 6,6′-((3-((5-(dihexylamino)-5-oxopentyl)(methyl)amino)propyl)azanediyl)dihexanoate]
[1]
  pKa: 6.34
[2]
  Serum IgG @ 0.3 mg/kg: 42.4 ± 11.7 µg/mL
  Serum IgG @ 1.0 mg/kg: 120.6 ± 31.7 µg/mL

## CCCCCCCCC(CCCCCC)COC(=O)CCCCCN(CCCCCC(=O)OCC(CCCCCC)CCCCCCCC)CCN(C)CCCCCC(=O)NCC(CC)CCCC (centres unmarked) [Compound I-11, bis(2-hexyldecyl) 6,6′-((2-((6-((2-ethylhexyl)amino)-6-oxohexyl)(methyl)amino)ethyl)azanediyl)dihexanoate]
[3]
  Liver Luc @ 0.3 mg/kg: 16601 ± 5871 ng/g
  Liver Luc @ 1.0 mg/kg: 66075 ± 18868 ng/g
[1]
  pKa: 6.27

## CCCCCCCCCCNC(=O)CCCCCN(C)CCN(CCCCCC(=O)OCC(CCCCCC)CCCCCCCC)CCCCCC(=O)OCC(CCCCCC)CCCCCCCC (centres unmarked) [Compound I-7, bis(2-hexyldecyl) 6,6′-((2-((6-(decylamino)-6-oxohexyl)(methyl)amino)ethyl)azanediyl)dihexanoate]
[3]
  Liver Luc @ 0.3 mg/kg: 10812 ± 2335 ng/g
  Liver Luc @ 1.0 mg/kg: 44836 ± 12026 ng/g
[1]
  pKa: 6.57

## CCCCCCCCC(=O)NCCCN(C)CCN(CCCCCCCC(=O)OCC(CCCCCC)CCCCCCCC)CCCCCCCC(=O)OCC(CCCCCC)CCCCCCCC (centres unmarked) [Compound I-4, bis(2-hexyldecyl) 8,8′-((2-(methyl(3-nonanamidopropyl)amino)ethyl)azanediyl)dioctanoate]
[3]
  Liver Luc @ 0.3 mg/kg: 7747 ± 1565 ng/g
  Liver Luc @ 1.0 mg/kg: 24964 ± 8175 ng/g
[1]
  pKa: 6.7

## CCCCCCCCC(CCCCCC)C(=O)OCCCCCCN(CCCCCCOC(=O)C(CCCCCC)CCCCCCCC)CCN(C)CCCC(=O)N(CC)CC (centres unmarked) [Compound I-52, 6-((2-((3-(N,N-diethylcarbamoyl)propyl)-n-methylamino)ethyl)(6-(1-hexylnonylcarbonyloxy)hexyl)amino)hexyl 2-hexyldecanoate]
[1]
  pKa: 6.71
[2]
  Serum IgG @ 0.3 mg/kg: 6.4 ± 2.6 µg/mL
  Serum IgG @ 1.0 mg/kg: 35.4 ± 11.1 µg/mL

## CCCCCCCCC(CCCCCC)COC(=O)CCCCCN(CCCCCC(=O)OCC(CCCCCC)CCCCCCCC)CCN(C)CCCCNC(=O)CCCCCCC (centres unmarked) [Compound I-1, bis(2-hexyldecyl) 6,6′-((2-(methyl(4-octanamidobutyl)amino)ethyl)azanediyl)dihexanoate]
[3]
  Liver Luc @ 0.3 mg/kg: 5497 ± 1457 ng/g
  Liver Luc @ 1.0 mg/kg: 13160 ± 5805 ng/g
[1]
  pKa: 6.64

## CCCCCCCCC(CCCCCC)C(=O)OCCCCCCN(CCCCCCOC(=O)C(CCCCCC)CCCCCCCC)CCCCN(C)CCCCC(=O)N(CCCCCCCC)CCCCCCCC (centres unmarked) [Compound I-51, ((4-((5-(dioctylamino)-5-oxopentyl)(methyl)amino)butyl)azanediyl)bis(hexane-6,1-diyl)bis(2-hexyldecanoate)]
[1]
  pKa: 6.4
[2]
  Serum IgG @ 0.3 mg/kg: 31.9 ± 6.5 µg/mL
  Serum IgG @ 1.0 mg/kg: 131.5 ± 18.1 µg/mL

## CCCCCCCC(=O)NCCCCN(C)CCN(CCCCCCCCCOC(=O)C(CCCC)CCCCCC)CCCCCCCCCOC(=O)C(CCCC)CCCCCC (centres unmarked) [Compound I-6, ((2-(methyl(4-octanamidobutyl)amino)ethyl)azanediyl)bis(nonane-9,1-diyl)bis(2-butyloctanoate)]
[3]
  Liver Luc @ 0.3 mg/kg: 12241 ± 3108 ng/g
  Liver Luc @ 1.0 mg/kg: 67044 ± 44033 ng/g
[1]
  pKa: 6.56

## CCCCCCCCC(CCCCCC)COC(=O)CCCCCN(CCCCCC(=O)OCC(CCCCCC)CCCCCCCC)CCN(C)CCCCCC(=O)N(C)CCCCCCCC (centres unmarked) [Compound I-10, bis(2-hexyldecyl) 6,6′-((2-(methyl(6-(methyl(octyl)amino)-6-oxohexyl)amino)ethyl)azanediyl)dihexanoate]
[3]
  Liver Luc @ 0.3 mg/kg: 9794 ± 1750 ng/g
  Liver Luc @ 1.0 mg/kg: 43271 ± 18103 ng/g
[1]
  pKa: 6.33

## CCCCCCCCC(CCCCCC)C(=O)OCCCCCCN(CCCCCCOC(=O)C(CCCCCC)CCCCCCCC)CCN(C)CCCC(=O)N(CCCC)CCCC (centres unmarked) [Compound I-8, ((2-((4-(dibutylamino)-4-oxobutyl)(methyl)amino)ethyl)azanediyl)bis(hexane-6,1-diyl)bis(2-hexyldecanoate)]
[3]
  Liver Luc @ 0.3 mg/kg: 16110 ± 2654 ng/g
  Liver Luc @ 1.0 mg/kg: 56927 ± 16125 ng/g
[1]
  pKa: 6.13

## CCCCCCCCCCCCCC(=O)NCCCCN(C)CCN(CCCCCC(=O)OCC(CCCCCC)CCCCCCCC)CCCCCC(=O)OCC(CCCCCC)CCCCCCCC (centres unmarked) [Compound I-3, bis(2-hexyldecyl) 6,6′-((2-(methyl(4-tetradecanamidobutyl)amino)ethyl)azanediyl)dihexanoate]
[3]; 0.5 mg mRNA/kg (footnote *)
  Liver Luc, determined at 0.5 mg/kg: 31 ± 6* ng/g
[1]
  pKa: 6.7

## CCCCCCCCC(CCCCCC)COC(=O)CCCCCCCN(CCCCCCCC(=O)OCC(CCCCCC)CCCCCCCC)CCN(C)CCCCNC(=O)CCCCCCC (centres unmarked) [Compound I-5, bis(2-hexyldecyl) 8,8′-((2-(methyl(4-octanamidobutyl)amino)ethyl)azanediyl)dioctanoate]
[3]
  Liver Luc @ 0.3 mg/kg: 6538 ± 11243 ng/g
  Liver Luc @ 1.0 mg/kg: 43609 ± 9207 ng/g
[1]
  pKa: 6.68
